Reference: ChEMBL document CHEMBL1149222, “Synthesis and in vitro antimycobacterial activity of novel 3-(1H-pyrrol-1-yl)-2-oxazolidinone analogues of PNU-100480” (2004)
Values after ≈ are worked out from the molar mass of the structure shown.

Key:
Assay type in all cases: functional
MT4 = experiment: Cytotoxicity of compound against mock-infected MT-4 cells was evaluated by MTT assay; settings: Homo sapiens
Mycobacterium [1] = experiment: (§1) In vitro anti-mycobacterial activity against Mycobacterium smegmatis determined by the MTT method
[2] = system: Mycolicibacterium smegmatis; experiment: as §1
[3] = system: Mycobacterium tuberculosis; experiment: In vitro anti-mycobacterial activity against Mycobacterium tuberculosis C.I. 1104 was determined
[4] = system: Mycobacterium tuberculosis; experiment: In vitro anti-mycobacterial activity against Mycobacterium tuberculosis C.I. 1104, determined by the MTT method
[5] = system: Mycobacterium tuberculosis; experiment: In vitro anti-mycobacterial activity against Mycobacterium tuberculosis ATCC 27294, determined by the MTT method
[6] = system: Mycolicibacterium fortuitum; experiment: In vitro anti-mycobacterial activity against Mycobacterium fortuitum was determined
Mycobacterium [7] = experiment: In vitro anti-mycobacterial activity against Mycobacterium avium complex was determined
[8] = system: Mycolicibacterium smegmatis; experiment: In vitro anti-mycobacterial activity against Mycobacterium smegmatis was determined
[9] = system: Mycobacterium tuberculosis; experiment: In vitro anti-mycobacterial activity against Mycobacterium tuberculosis ATCC 27294 was determined
[10] = system: Mycolicibacterium fortuitum; experiment: In vitro anti-mycobacterial activity against Mycobacterium fortuitum determined by the MTT method

Compound	CC50 (MT4)	MIC90 (Mycobacterium [1])	MIC90 [2]	MIC50 [3]	MIC90 [4]	MIC90 [5]	MIC50 [6]	MIC50 (Mycobacterium [7])	MIC50 [8]	MIC50 [9]	MIC90 [10]
CC(=O)NC[C@H]1CN(c2ccn(-c3ccc(N4CCSCC4)c(F)c3)c2)C(=O)O1	20 µM	11.8 µM (≈ 4.94 µg/mL)	> 100 µM	12.2 µM (≈ 5.11 µg/mL)	31 µM (≈ 13 µg/mL)	25 µM (≈ 10.5 µg/mL)	> 100 µM	4.8 µM (≈ 2.01 µg/mL)	34 µM (≈ 14.2 µg/mL)	9.8 µM (≈ 4.1 µg/mL)	
CC(=O)NC[C@H]1CN(c2ccn(-c3cccc(F)c3)c2)C(=O)O1	> 100 µM	39.8 µM (≈ 12.6 µg/mL)	56.3 µM (≈ 17.9 µg/mL)	9.4 µM (≈ 2.98 µg/mL)	76.9 µM (≈ 24.4 µg/mL)	91.4 µM (≈ 29 µg/mL)	> 100 µM	4.6 µM (≈ 1.46 µg/mL)	14.5 µM (≈ 4.6 µg/mL)	12.9 µM (≈ 4.09 µg/mL)	
CC(=O)NC[C@H]1CN(c2ccn(-c3ccccc3)c2)C(=O)O1	> 100 µM	32.8 µM (≈ 9.82 µg/mL)	41.3 µM (≈ 12.4 µg/mL)	10.5 µM (≈ 3.14 µg/mL)	77.8 µM (≈ 23.3 µg/mL)	74 µM (≈ 22.2 µg/mL)	> 100 µM	4 µM (≈ 1.2 µg/mL)	9.8 µM (≈ 2.93 µg/mL)	19 µM (≈ 5.69 µg/mL)	
CC(=O)NC[C@H]1CN(c2ccn(N3CCOCC3)c2)C(=O)O1	> 100 µM			> 100 µM			> 1000 µM	> 100 µM	> 100 µM	> 100 µM	
CC(=O)NC[C@H]1CN(c2ccn(-c3ccccc3F)c2)C(=O)O1	33.3 µM	8.9 µM (≈ 2.82 µg/mL)	15.7 µM (≈ 4.98 µg/mL)			24.7 µM (≈ 7.84 µg/mL)	88.6 µM (≈ 28.1 µg/mL)	2 µM (≈ 0.635 µg/mL)	4.2 µM (≈ 1.33 µg/mL)	3.6 µM (≈ 1.14 µg/mL)	> 100 µM
CC(=O)NC[C@H]1CN(c2ccn(-c3ccc(N4CCOCC4)c(F)c3)c2)C(=O)O1	> 100 µM	100 µM (≈ 40.2 µg/mL)	> 100 µM	49 µM (≈ 19.7 µg/mL)	> 100 µM	100 µM (≈ 40.2 µg/mL)	> 100 µM	16.5 µM (≈ 6.64 µg/mL)	42.6 µM (≈ 17.1 µg/mL)	12.9 µM (≈ 5.19 µg/mL)	
CC(=O)NC[C@H]1CN(c2ccn(-c3ccc(F)cc3)c2)C(=O)O1	100 µM	5.8 µM (≈ 1.84 µg/mL)	45.8 µM (≈ 14.5 µg/mL)			19.7 µM (≈ 6.25 µg/mL)	> 100 µM	1.4 µM (≈ 0.444 µg/mL)	10.3 µM (≈ 3.27 µg/mL)	1.9 µM (≈ 0.603 µg/mL)	
NNC(=O)c1ccncc1 [ISONIAZID]	> 100 µM	4.7 µM (≈ 0.645 µg/mL)	6.7 µM (≈ 0.919 µg/mL)	0.06 µM (≈ 0.00823 µg/mL)	0.2 µM (≈ 0.0274 µg/mL)	9.8 µM (≈ 1.34 µg/mL)	> 100 µM	1.4 µM (≈ 0.192 µg/mL)	1.8 µM (≈ 0.247 µg/mL)	0.09 µM (≈ 0.0123 µg/mL)	
CC(=O)NC[C@H]1CN(c2ccc(N3CCSCC3)c(F)c2)C(=O)O1 [SUTEZOLID]	> 100 µM	5 µM (≈ 1.77 µg/mL)	1.6 µM (≈ 0.565 µg/mL)	0.5 µM (≈ 0.177 µg/mL)	2.5 µM (≈ 0.884 µg/mL)	0.9 µM (≈ 0.318 µg/mL)	> 100 µM	0.7 µM (≈ 0.247 µg/mL)	0.5 µM (≈ 0.177 µg/mL)	0.1 µM (≈ 0.0353 µg/mL)	
